Measurements taken from paper PMC11339798, “Dual inhibitors of Pseudomonas aeruginosa virulence factors LecA and LasB” (Chemical Science, 2024).
Where two headings read alike, the source gives them in different places.

Key:
LasB [1] = target: T1, LasB (Pseudomonas aeruginosa, UniProt Q02RJ6); experiment: FRET-based in vitro LasB inhibition (proteolysis) assay; format: biochemical, P. aeruginosa PA14
T1 construct: P. aeruginosa PA14 culture supernatant; made in house; host or cells: native secreted enzyme purified from P. aeruginosa PA14 culture supernatant (not recombinant)
T1 sequence (Q02RJ6 198-498): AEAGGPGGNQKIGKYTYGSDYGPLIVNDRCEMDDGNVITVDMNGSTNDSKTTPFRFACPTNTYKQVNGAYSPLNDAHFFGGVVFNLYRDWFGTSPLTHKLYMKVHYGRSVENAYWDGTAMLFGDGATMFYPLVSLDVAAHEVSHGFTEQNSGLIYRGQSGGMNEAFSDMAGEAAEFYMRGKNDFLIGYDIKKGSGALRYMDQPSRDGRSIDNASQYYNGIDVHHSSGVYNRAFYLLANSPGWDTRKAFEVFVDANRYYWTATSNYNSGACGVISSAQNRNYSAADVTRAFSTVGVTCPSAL
Method: The LasB activity of the thiol derivatives 11, 12, 17, 18, 24 and 25 was tested using a functional FRET-based in vitro proteolysis assay (Fig. 4A). […]
Expression and purification of LasB and LecA
LecA was expressed recombinantly using E. coli pET25-pail, whereas LasB was isolated from P. aeruginosa PA14 culture supernatant as described previously. 1,2 […]
In vitro inhibition assay for LasB
The in vitro inhibition assay was performed as described previously,2 using purified LasB (final concentration 0.3 nM), the fluorogenic substrate 2-aminobenzoyl-Ala-Gly-Leu-Ala-4-nitrobenzylamide (purchased from Peptides International (Louisville, KY, USA) or Vivitide, LLC (Gardner, MA, USA), final concentration 150 µM)) in assay buffer (50 mM Tris, pH 7.2, 2.5 mM CaCl2, 0.075% Pluronic F-127, 5% DMSO). Fluorescence was measured using a CLARIOstar plate reader (BMG Labtech, Ortenberg, Germany). IC50 values were calculated using GraphPad Prism 8 (GraphPad Software, San Diego, CA, USA) from at least three independent experiments performed in duplicate.

LecA = target: T2, LecA (Pseudomonas aeruginosa, UniProt Q05097); experiment: Surface plasmon resonance direct LecA binding assay (immobilized LecA); set-up: species or system P. aeruginosa; conditions: for time to reach equilibrium binding with immobilized LecA / k a / k d: SPR; for k a / k d: immobilized LecA
T2 construct: made in house; host or cells: E. coli (plasmid pET25-pail)
T2 sequence (Q05097 whole entry): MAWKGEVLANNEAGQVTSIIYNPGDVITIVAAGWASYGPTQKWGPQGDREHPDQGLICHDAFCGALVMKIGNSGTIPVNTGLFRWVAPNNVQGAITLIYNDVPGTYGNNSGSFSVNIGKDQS
Source text: Therefore, we measured the LecA affinity of thiol derivatives 17, 18, 24 and 25 and disulfides 26a, 26b and 27 using surface plasmon resonance (SPR) with LecA covalently immobilized on a sensor chip via amide coupling (Fig. 5 and Table 1). […] Thiols 17, 18, 24 and 25 reached equilibrium binding within 60 s of interaction with immobilized LecA, followed by their dissociation with moderate off-rates. […] Due to the very small off-rates for 26a, 26b and 27, these values have been calculated based on the response at […] of the injected compound and monitoring their dissociation for 30 min (Fig. S2 ^†). The observed very tight binding to immobilized LecA required optimization of the protein surface regeneration procedure. Effective conditions were identified as one injection of 50 mm isopropyl β-D-thiogalactoside in the running buffer, followed by one injection of 20 mm EDTA disodium salt in water. The regenerated chip surface was controlled using an injection of 1 to ensure that the activity of LecA was maintained.
Surface plasmon resonance direct LecA binding assay
SPR experiments were performed on a Reichert 2-channel SPR SR7500DC (Reichert Technologies Life Sciences, Buffalo, NY, USA) at 25 °C. For LecA immobilization, the surface of a HC1000M sensor chip (XanTec bioanalytics GmbH, Düsseldorf, Germany) was preequilibrated with borate buffer (1 M NaCl, 0.1 M sodium borate pH 9.0), followed by activation of the polycarboxylate hydrogel with 0.2 M N-hydroxysuccinimide (NHS) and 0.4 M 1-ethyl-3-(3-dimethylaminopropyl)carbodiimide hydrochloride (EDC‧HCl) in MilliQ water in both channels for 240 s (flow rate 10 μL/min) until the binding response reached 1200 RU.
Then, LecA (100 μg/mL) in 10 mM sodium acetate pH 3.6 was injected on the activated chip surface of one channel (injection time 420 s, flow rate 10 μL/min) and 6000 RU of LecA were immobilized. Unreacted NHS esters in both channels were blocked with 1 M ethanolamine hydrochloride in MilliQ water pH 8.5 (injection time 360 s, flow rate 10 μL/min).
Test compound stock solutions were prepared in DMSO (20 mM stocks for monovalent LecA inhibitors, 20 µM stocks for divalent LecA inhibitors) and were subsequently diluted in 10 mM phosphate buffer (pH 7.4, 2.7 mM KCl, 137 mM NaCl, 100 μM CaCl2) to obtain solutions with […]
Monovalent inhibitors 17, 18, 24 and 25 were injected for 120 s (flow rate 50 μL/min) at concentrations ranging from 0.39–100 µM. Divalent inhibitors 26a, 26b and 27 were injected for 120 s (flow rate 50 μL/min) at concentrations 50–350 nM. The chip surface was regenerated after each inhibitor injection by one injection of 50 mM IPTG in running buffer (10 mM phosphate buffer, pH 7.4, 2.7 mM KCl, 137 mM NaCl, 100 μM CaCl2, 2% DMSO) followed by one injection 20 mM EDTA disodium salt in MilliQ water, and then followed by three injections of the running buffer (injection time 120 s, flow rate 50 μL/min). 100 µM pNP-Gal (1) in running buffer was injected before each analyte to monitor and ensure chip regeneration and […]
Affinity/equilibrium analysis was performed for 1 on the same chip. A stock solution of 1 (10 mM in PBS/CaCl2 buffer) was prepared, then diluted to the required concentrations in running buffer and injected at 1.56–400 µM (injection time 60 s, flow rate 50 μL/min) without regeneration steps. Data analysis was performed using TraceDrawer software (Ridgeview Instruments) using a 1:1 binding model to fit the experimental data. Spikes at the end of the injections were removed in TraceDrawer during the data analysis.

LasB [2] = target: T1, LasB; conditions: previously observed activities of reported inhibitors; cited from earlier work
[3] = system: LecA-FITC binding to human A549 cells; experiment: Inhibition of LecA-FITC adhesion to A549 cells by fluorescence microscopy; format: cell-based; conditions: concentrations tested 1-100 µM, 10 μM LecA-FITC, 4 °C, 30 min
Method: LecA-mediated cell adhesion is crucial for the initial infection and host-cell invasion of P. aeruginosa. Therefore, compounds 1 and 2, a combination of 1+2 and the dual inhibitor 12 were assessed for their ability to inhibit LecA-binding to human A549 cells. 10 μM of LecA-FITC and different concentrations of the respective compounds were incubated at 4 °C for 30 min with confluent A549 cells.
10 min, facilitating the separation of bacterial cells from the supernatant. The latter was filtered through a 0.22 µm sterile filter and stored at –80 °C until further use. […]
CO2. […] The plates were then incubated for an additional 30 min at 37 °C and then, the UV absorbance was measured using a PHERAstar microplate reader. The test samples were read at a wavelength of 550 nm, while the blank was read at 620 nm. At last, the data were statistically analyzed and presented graphically using GraphPad Prism 9 (Figure S4 and S5). […]
have any negative effects. The plate was then incubated at 4 °C for 30 min and wells were washed 5 times with PBS prior to imaging via fluorescence microscopy.
Fluorescence image acquisition, processing, and quantification
Fluorescence images were captured using an inverted fluorescence microscope (Leica DMi8) equipped with a 20x objective (HC PL APO CS2 20x/0.75 IMM UV), an FITC filter cube (EX: […]

A549 cells = experiment: Inhibition of LasB-dependent cytotoxicity of P. aeruginosa PAO1 culture supernatant on A549 cells (MTT); format: cell-based, human; conditions: 1 μM compound, 10% (v/v) PAO1 supernatant
Method: Next, we set out to analyze the ability of the dual inhibitor 12 and the individual treatment or combination of galactoside 1 and thiol 2 to reduce LasB-dependent cytotoxicity from P. aeruginosa PAO1 culture supernatant on A549 cells. None of the investigated compounds influenced A549 cell viability at 100 μM in the absence of bacterial culture supernatant (Fig. S4 ^†). […]
In vitro evaluation of 12 and a combination of 1 and 2 using P. aeruginosa culture supernatant and A549 cells in a cell viability assay
The A549 cell line, derived from human lung adenocarcinoma, was grown in Dulbecco's Modified Eagle Medium (DMEM) supplemented with 10% Fetal Bovine Serum (FBS) and 1% penicillin-streptomycin. The cells were cultured following standard protocols for cell […]
To prepare the bacterial culture supernatant, individual flasks containing 15 mL of lysogeny broth (LB) culture medium were inoculated with PAO1 or PAO1 ΔlasB strains. Culture flasks were placed on a shaker and incubated at 37 °C and 180 rpm overnight for 18 hours. Following incubation, the bacterial cultures were subjected to centrifugation at 4 °C and 5000 rpm for […]
10 min, facilitating the separation of bacterial cells from the supernatant. The latter was filtered through a 0.22 µm sterile filter and stored at –80 °C until further use.
In a flat bottom 96-well plate (Corning™ Costar™), each well was seeded with 2.5–3.5*10 3 cells in 100 µL DMEM/FCS and then incubated at a temperature of 37 °C with 5% CO2 for 24 hours. Then, compounds 12 and 1 combined with 2 in concentrations of 100 µM, 10 µM, and 1 µM were mixed with 10% (v/v) of culture supernatant of P. aeruginosa PAO1 (DSM 22644, ATCC 15692) in DMEM/FCS. To minimize the potential negative effect of DMSO, the compound was initially dissolved in 99.9% DMSO, and a final assay concentration of 0.5% DMSO was applied. Additionally, the cells were exposed to 10% (v/v) PAO1 ΔlasB culture supernatant to analyze the effect caused by LasB, while DMEM/FCS without any treatment served as a control. The plates were then incubated at 37 °C with 5% CO2 for 24 hours before conducting the MTT assay.
To assess cell viability, the medium in the well plates was aspirated and a single wash was performed using 100 µL of phosphate buffered saline, pH 7.4 (PBS). A solution of 5 mg MTT (3-(4,5-dimethylthiazol-2-yl)-2,5-diphenyl tetrazolium bromide) per mL PBS was prepared and diluted to a concentration of 10% (v/v) in DMEM/FCS. Subsequently, 100 µL of this MTT solution was added to each well, and the plates were incubated at 37 °C for 3 hours with 5%
CO2. After incubation, the MTT solution was carefully removed, and the formazan crystals were dissolved by adding 150 µL of lysis solution (250 mL DMSO, 25 g SDS, and 1.25 mL AcOH) to each well. The plates were then incubated for an additional 30 min at 37 °C and then, the UV absorbance was measured using a PHERAstar microplate reader. The test samples were read at a wavelength of 550 nm, while the blank was read at 620 nm. At last, the data were statistically analyzed and presented graphically using GraphPad Prism 9 (Figure S4 and S5).
Evaluation of compounds 1, 2 and 12 in inhibiting LecA adhesion to A549 cells via […]
The A549 cell line were cultured following the protocols for cell maintenance described above.
In a flat-bottom cell culture black 96-well plate (Greiner Bio-One, #Cat 655090) each well was seeded with 1*104 cells in 100 µL DMEM/FCS and subsequently, incubated overnight at 37 °C with 5% CO2. […]

| SMILES | IC50 (LasB [1]) | Kd (LecA) | time to reach equilibrium binding with immobilized LecA (LecA) | k a (LecA) | k d (LecA) | IC50 (LasB [2]) | inhibition of binding of LecA-FITC to A549 cells [3] | A549 cell viability under PAO1 culture supernatant (A549 cells) |
| --- | --- | --- | --- | --- | --- | --- | --- | --- |
| O=C(Nc1ccc(S[C@@H]2O[C@H](CO)[C@H](O)[C@H](O)[C@H]2O)cc1)[C@H](S)Cc1ccccc1 [Compound 17] | 730 nM | 1300 ± 540 nM | ≤ 60 s | 0.71 ± 0.14 ×10^4 M^−1 s^−1 | 86 ± 20 ×10^−4 s^−1 | – | – | – |
| O=C(Nc1ccc(S[C@@H]2O[C@H](CO)[C@H](O)[C@H](O)[C@H]2O)cc1)[C@@H](S)Cc1ccccc1 [Compound 24] | 220 nM | 840 ± 160 nM | ≤ 60 s | 0.88 ± 0.23 ×10^4 M^−1 s^−1 | 72 ± 5 ×10^−4 s^−1 | – | – | – |
| CC(C)C[C@@H](S)C(=O)Nc1ccc(S[C@@H]2O[C@H](CO)[C@H](O)[C@H](O)[C@H]2O)cc1 [Compound 18] | 510 nM | 630 ± 290 nM | ≤ 60 s | 1.41 ± 0.47 ×10^4 M^−1 s^−1 | 82 ± 11 ×10^−4 s^−1 | – | – | – |
| CC(C)C[C@H](S)C(=O)Nc1ccc(S[C@@H]2O[C@H](CO)[C@H](O)[C@H](O)[C@H]2O)cc1 [Compound 25] | 770 nM | 1000 ± 590 nM | ≤ 60 s | 0.90 ± 0.31 ×10^4 M^−1 s^−1 | 85 ± 2 ×10^−4 s^−1 | – | – | – |
| O=C(Nc1ccccc1)C(S)Cc1ccccc1 (centres unmarked) [Compound 3] | – | – | – | – | – | 1200 nM | – | – |
| Cc1ccc(NC(=O)C(S)CC(C)C)cc1 (centres unmarked) [Compound 2, reference compound] | – | – | – | – | – | – | failed to do so | neither 1 nor 2 nor their combination had any effect |
